Results as given in patent US10858335B2 (Rigel Pharmaceuticals, Inc., priority 2014, dated 2020).
pIC50: −log10 of the molar value.

System: GDF8 signaling (p-SMAD-3 (Ser423/425))
Experiment: AlphaScreen SureFire SMAD3 (p-Ser423/425) assay, GDF8-stimulated cells (GDF pSMAD)
Type: cell-based
Settings: Mus musculus, MPC-11, MPC11; GDF8-stimulated; p-SMAD3 AlphaScreen; read-out: GDF pSMAD (MPC11) (inhibition of GDF8 signaling)

First: Cc1cc(-c2ncccc2-c2ccc3ncc(C(=O)N[C@H]4CN5CCC4CC5)n3c2)ccc1F [compound 791, (R)-6-(2-(4-Fluoro-3-methylphenyl)pyridin-3-yl)-N-(quinuclidin-3-yl)imidazo[1,2-a]pyridine-3-carboxamide]
Second: Cc1cc(-c2ncccc2-c2ccc3ncc(C(=O)NCCN4CCOC4=O)n3c2)ccc1F [compound 817, 6-(2-(4-Fluoro-3-methylphenyl)pyridin-3-yl)-N-(2-(2-oxooxazolidin-3-yl)ethyl)imidazo[1,2-a]pyridine-3-carboxamide]
The pIC50 of the first is 0.96 log units lower: 5.27 for the first, 6.23 for the second. The second is the more potent here.

First: Cc1ccc(F)c(-c2ncccc2-c2ccc3[nH]ncc3c2)c1 [Compound 73, 5-(2-(2-Fluoro-5-methylphenyl)pyridin-3-yl)-1H-indazole]
Second: Cc1cc(-c2ncccc2-c2ccc3[nH]ncc3c2)ccc1O [Compound 122, 4-(3-(1H-Indazol-5-yl)pyridin-2-yl)-2-methylphenol]
The pIC50 of the first is 0.91 log units higher: 6.30 for the first, 5.39 for the second.

`Fc1cnc(-c2cc(Cl)ccc2F)c(-c2ccn3ncnc3c2)c1` [compound 862, 7-(2-(5-Chloro-2-fluorophenyl)-5-fluoropyridin-3-yl)-[l 1,2,4]triazolo[1,5-a]pyridine] and `Fc1ccc(-c2ncccc2-c2ccn3ncnc3c2)cc1Cl` [compound 733, 7-(2-(3-Chloro-4-fluorophenyl)pyridin-3-yl)-[1,2,4]triazolo[1,5-a]pyridine] are within 0.2 log units of each other in pIC50: 5.74 for the first, 5.90 for the second.

Going from `CCOC(=O)c1cnn2ccc(-c3cccnc3-c3ccc(F)c(C)c3)cc12` [compound 677, Ethyl 5-(2-(4-Fluoro-3-methylphenyl)pyridin-3-yl)pyrazolo[1,5-a]pyridine-3-carboxylate] to `Cc1cc(-c2ncccc2-c2ccn3ncc(C(=O)NCCCN4CCN(C)CC4)c3c2)ccc1F` [compound 676, 5-(2-(4-Fluoro-3-methylphenyl)pyridin-3-yl)-N-(3-(4-methylpiperazin-1-yl)propyl)pyrazolo[1,5-a]pyridine-3-carboxamide], the pIC50 rises from 6.25 to 6.57 (0.32 log units).

`Cc1ccc(Oc2ncnc3ccc(-c4cccnc4-c4ccc(F)c(C)c4)cc23)cn1` [compound 432, 6-(2-(4-Fluoro-3-methylphenyl)pyridin-3-yl)-4-((6-methylpyridin-3-yl)oxy)quinazoline] and `Cc1cc(-c2ncccc2-c2ccc3ncnc(OCC#N)c3c2)ccc1F` [compound 430, 2-((6-(2-(4-Fluoro-3-methylphenyl)pyridin-3-yl)quinazolin-4-yl)oxy)acetonitrile] are within 0.2 log units of each other in pIC50: 6.29 for the first, 6.32 for the second.

Going from `Cc1cc(-c2ncccc2-c2ccc3cnc(N)nc3c2)ccc1F` [compound 396, 7-(2-(4-Fluoro-3-methylphenyl)pyridin-3-yl)quinazolin-2-amine] to `Cc1cc(-c2ncccc2-c2ccc3ncnc(N)c3c2)ccc1F` [compound 392, 6-(2-(4-Fluoro-3-methylphenyl)pyridin-3-yl)quinazolin-4-amine], the pIC50 rises from 6.68 to 6.89 (0.21 log units). The second is the more potent here.

Going from `Oc1ccc(-c2ncccc2-c2ccc3[nH]ncc3c2)cc1` [Compound 121, 4-(3-(1H-Indazol-5-yl)pyridin-2-yl)phenol] to `N#Cc1cccc(-c2ncccc2-c2cnc3[nH]ncc3c2)c1` [Compound 154, 3-(3-(1H-Pyrazolo[3,4-b]pyridin-5-yl)pyridin-2-yl)benzonitrile], the pIC50 rises from 5.27 to 5.88 (0.61 log units).

Compared with `Nc1ncnc2ccc(-c3cccnc3-c3ccc(F)c(Cl)c3)nc12` [compound 964, 6-(2-(3-Chloro-4-fluorophenyl)pyridin-3-yl)pyrido[3,2-d]pyrimidin-4-amine], `Nc1noc2cc(-c3cccnc3-c3ccc(F)c(Cl)c3)ccc12` [compound 797, 6-(2-(3-Chloro-4-fluorophenyl)pyridin-3-yl)benzo[d]isoxazol-3-amine] is 1.22 log units lower in pIC50: 6.64 for the first, 5.42 for the second.

Work on `Cc1cccc(-c2ncccc2-c2ccc3ncc(N4CCCC4)n3c2)c1` [compound 562, 3-(Pyrrolidin-1-yl)-6-(2-(m-tolyl)pyridin-3-yl)imidazo[1,2-a]pyridine] yielded a pIC50 of 5.01.
